Measured values taken from publication PMC6131760, “4-Phenyl-1,3-thiazole-2-amines as scaffolds for new antileishmanial agents” (The Journal of Venomous Animals and Toxins Including …, 2018).
Read-outs that look alike come from different tables or passages of the source.

Key:
[1] = system: promastigotes of Leishmania amazonensis (MHOM/BR/1973/M2269); assay: Antileishmanial assay against promastigotes (PrestoBlue viability); assay type: cell-based; details: L. amazonensis promastigotes
Protocol: All compounds were assayed against promastigotes of Leishmania amazonensis (MHOM/BR/1973/M2269). Promastigotes were grown in 199 media (Sigma, USA) supplemented with 10% (v/v) of fetal bovine serum, 1% penicillin (10,000 UI/mL)/streptomycin (10.0 mg/mL) (Sigma, USA). The parasites were collected at log phase, they were counted at the Neubauer chamber, their concentration was adjusted to 1 × 10^6 cell/mL, and their cells were seeded at a 96-wells plate. The 4-phenyl-2-aminothiazoles were added to the culture, considering concentrations ranging from 3.2 to 142 μM. Compounds were diluted in Dimethyl sulfoxide (DMSO) (25 mg/mL) and diluted in 199 media to generate a 1% DMSO starting solution of each test compound. Positive control with no compounds and DMSO control were considered at the assay. All plates were incubated at 25 °C for 48 h, and PrestoBlue® vital dye was added to the wells.
Viability was accessed with PrestoBlue® (Invitrogen, ThermoFisher) according to the manufacturer’s instructions. The reagent was added in each well (10 μL) and plates incubated for 2 h. Then, plates were read on a microplate reader (PowerWave HT, Biotek) with excitation/emission 560/590 nm (nm). The relative fluorescence units were used to generate the quantitative results. All compounds were analyzed as duplicates, and the parameters to calculate IC50 were obtained by GraphPad Prism, version 5.0. IC50 values were determined by the Hill equation rearranged. LogIC50=logEC50−logTop−Bottom/Y−Bottom−1/HillSlope

L929 cells = assay: Cytotoxicity assay in L929 cells (PrestoBlue); assay type: cell-based
Protocol: (§1) The cytotoxicity was measured in L929 and THP1 cell lines using PrestoBlue®Cell Viability Reagent (Thermo Scientific, Invitrogen) as described by Lall et al. with modifications. First, cells were maintained in RPMI 1640 (Gibco) supplemented with 10% fetal bovine serum (FBS) and 1% antibiotics (100 U/mL penicillin, 100 μg/mL streptomycin). Cell cultures were grown and maintained at 37 °C in a humidified incubator with 5% CO2. Then, L929 cells were seeded in 96-wells flat microtiter plate at a concentration of 1 × 10^5cells/mL (100 μL/well). To THP-1 cells, cultures were differentiated into macrophages by adding 50 ng/mL 12-myristate 13-acetate phorbol (PMA) (Calbiochem, San Diego, USA) in RPMI-free FBS. After 24 h of culturing, the adhered cells were washed with PBS and RPMI with 10% FBS were added. […] The plates were incubated for 48 h and, thereafter, 20 μL/well PrestoBlue® was added. The plates were incubated for further 2 h and the fluorescence was read at bottom using 540–570 nm excitation and 580–610 nm emission. The average of the fluorescence values of the control wells (medium plus PrestoBlue®) was subtracted from the fluorescence value of the positive controls (cells, medium, and PrestoBlue®) and from each experimental well (cells, medium, compounds and PrestoBlue®). In all cases, the CC50 was calculated as described as in the Antileishmanial assay Section. Selectivity indexes (SI) were calculated by dividing CC50 against each mammalian cell line by the IC50 against L. amazonensis (CC50/IC50).

THP1 cells = assay: Cytotoxicity assay in THP-1 cells differentiated into macrophages (PrestoBlue); assay type: cell-based, human
Protocol: as §1

VERO cells = assay: Cytotoxicity assay in Vero cells (MTT); assay type: cell-based, African green monkeys
Protocol: (§2) Cytotoxicity was also evaluated using Vero cells, a monkey kidney cell line obtained from the American Type Culture Collection (ATCC CCL-81; Manassas, VA). The cytotoxicity was determined by the 3-(4,5dimethylthiazol- 2-yl)-2,5-diphenyltetrazolium bromide (MTT) method according to a previously described procedure.
(§3) In all cases, the CC50 was calculated as described as in the Antileishmanial assay Section.
(§4) Selectivity indexes (SI) were calculated by dividing CC50 against each mammalian cell line by the IC50 against L. amazonensis (CC50/IC50).

[2] = Cytotoxicity assay in L929 cells (PrestoBlue); assay type: cell-based; details: mouse, L929 fibroblast cells; L929 fibroblasts, 48 h, PrestoBlue
Protocol: as §1

[3] = Cytotoxicity assay in THP-1 cells differentiated into macrophages (PrestoBlue); assay type: cell-based, human; details: human, THP-1 cells differentiated into macrophages with PMA; PMA-differentiated THP-1, 48 h, PrestoBlue; read-out: CC50 THP1 cells
Protocol: as §1

[4] = Cytotoxicity assay in Vero cells (MTT); assay type: cell-based, African green monkeys; details: African green monkey, Vero cells (monkey kidney cell line, ATCC CCL-81); Vero cells, MTT
Protocol: as §2, §3, §4

[5] = L929 fibroblasts, 48 h, PrestoBlue, read-out: CC50 L929 cells
[6] = PMA-differentiated THP-1, 48 h, PrestoBlue, read-out: CC50 THP1 cells
[7] = Vero cells, MTT, read-out: CC50 VERO cells
[8] = Leishmania amazonensis, 48 h, 48 h at 25 °C, PrestoBlue, 3.2 to 142 μM tested, read-out: IC50
[9] = 48 h at 25 °C, PrestoBlue, 3.2 to 142 μM tested, read-out: IC50

| SMILES | pIC50 ([1]; pIC50 = −log10 (IC50)) | CC50 (L929 cells; [5]) | CC50 (THP1 cells; [6]) | CC50 (VERO cells; [7]) | IC50 [1, 8] | IC50 [1, 9] | further results |
| --- | --- | --- | --- | --- | --- | --- | --- |
| Nc1nc(-c2ccccc2)cs1 [Compound 1] | 3.02 | 198 µM | 144 µM | 710 µM |  |  |  |
| N=C(N)c1ccc(OCCCCCOc2ccc(C(=N)N)cc2)cc1 [Pentamidine, reference compound] |  |  |  |  | 10.8 µM |  |  |
| C[C@@H]1[C@H](O)[C@@H](C)/C=C/C=C/C=C/C=C/C=C/C=C/C=C/[C@H](O[C@@H]2O[C@H](C)[C@@H](O)[C@H](N)[C@@H]2O)C[C@@H]2O[C@](O)(C[C@@H](O)C[C@@H](O)[C@H](O)CC[C@@H](O)C[C@@H](O)CC(=O)O[C@H]1C)C[C@H](O)[C@H]2C(=O)O [Amphotericin B, reference compound] |  |  |  |  | 16.2 µM |  |  |
| Nc1nc(-c2ccc(O)cc2)cs1 [Compound 7] | inactive |  |  | 651 µM |  |  | IC50 ([1]; 48 h at 25 °C, PrestoBlue, 3.2 to 142 μM tested): inactive; CC50 L929 cells (L929 cells; L929 fibroblasts, 48 h, PrestoBlue): Inactive; CC50 THP1 cells (THP1 cells; PMA-differentiated THP-1, 48 h, PrestoBlue): inactive |
| Cc1ccc(-c2csc(N)n2)cc1 [Compound 2] | 3.97 | 160 µM | 135 µM | 658 µM |  | 108 µM |  |
| Nc1nc(-c2ccc(Cl)cc2)cs1 [Compound 8] | 3.94 | 115 µM | 82.2 µM | 596 µM |  | 116 µM |  |
| Nc1nc(-c2ccc(C(F)(F)F)cc2)cs1 [Compound 5] | 4.27 | 106 µM | 92.2 µM | 512 µM |  |  |  |
| CC(C)(C)c1ccc(-c2csc(N)n2)cc1 [Compound 6] |  |  |  |  | 21 µM | 20.8 µM | IC50 ([1]; Leishmania amazonensis, pIC50 = −log10 (IC50), read-out: pIC50 (converted)): 20.9 µM; melting point: 227 to 230 °C; CC50 at 48 h [2]: 27.1 µM; CC50 at 48 h [3]: 45.7 µM; CC50 [4]: 118 µM |
| CCc1ccc(-c2csc(N)n2)cc1 [Compound 3] | 4.33 |  |  |  |  | 46.6 µM | CC50 (L929 cells): 95.5 µM; CC50 (THP1 cells): 117 µM; CC50 (VERO cells): 1220 µM |
| Nc1nc(-c2ccc(Cl)c(Cl)c2)cs1 [Compound 4] | 4.27 | 121 µM | 84.7 µM | 255 µM |  |  |  |
